Results published in patent publication US10245261B2, “Substituted indol-5-ol derivatives and their therapeutic applications” (NantBioScience, Inc., priority 2013, dated 2019).
Where two headings read alike, the source gives them in different places. Blank lines part the entries; values can stand above or below the compound they belong to.

Columns and labels:
CaMKIIδ(h) = CaMKIIδ(h) (Homo sapiens, UniProt Q13557); assay: KinaseProfiler kinase assay; assay type: biochemical
GCK(h) = GCK(h) (Homo sapiens, UniProt Q12851); assay: KinaseProfiler kinase assay; assay type: biochemical
[1] = system: NCI 60 cancer cell line panel; assay: NCI-60 DTP Human Tumor Cell Line Panel, SRB growth inhibition; assay type: cell-based; settings: for GI50: Homo sapiens
Protocol: The human tumor cell lines of the cancer screening panel are grown in RPMI 1640 medium containing 5% fetal bovine serum and 2 mM L-glutamine. For a typical screening experiment, cells are inoculated into 96 well microtiter plates in 100 μL at plating densities ranging from 5,000 to 40,000 cells/well depending on the doubling time of individual cell lines. After cell inoculation, the microtiter plates are incubated at 37° C., 5% CO2, 95% air and 100% relative humidity for 24 h prior to addition of experimental drugs.
After 24 h, two plates of each cell line are fixed in situ with TCA, to represent a measurement of the cell population for each cell line at the time of drug addition (Tz). Experimental drugs are solubilized in dimethyl sulfoxide at 400-fold the desired final maximum test concentration and stored frozen prior to use. At the time of drug addition, an aliquot of frozen concentrate is thawed and diluted to twice the desired final maximum test concentration with complete medium containing 50 μg/ml gentamicin. Additional four, 10-fold or ½ log serial dilutions are made to provide a total of five drug concentrations plus control. Aliquots of 100 μl of these different drug dilutions are added to the appropriate microtiter wells already containing 100 μl of medium, resulting in the required final drug concentrations.
Following drug addition, the plates are incubated for an additional 48 h at 37° C., 5% CO2, 95% air, and 100% relative humidity. For adherent cells, the assay is terminated by the addition of cold TCA. Cells are fixed in situ by the gentle addition of 50 μl of cold 50% (w/v) TCA (final concentration, 10% TCA) and incubated for 60 minutes at 4° C. The supernatant is discarded, and the plates are washed five times with tap water and air dried. Sulforhodamine B (SRB) solution (100 μl) at 0.4% (w/v) in 1% acetic acid is added to each well, and plates are incubated for 10 minutes at room temperature. After staining, unbound dye is removed by washing five times with 1% acetic acid and the plates are air dried. Bound stain is subsequently solubilized with 10 mM trizma base, and the absorbance is read on an automated plate reader at a wavelength of 515 nm. For suspension cells, the methodology is the same except that the assay is terminated by fixing settled cells at the bottom of the wells by gently adding 50 μl of 80% TCA (final concentration, 16% TCA). Using the seven absorbance measurements [time zero, (Tz), control growth, (C), and test growth in the presence of drug at the five concentration levels (Ti)], the percentage growth is calculated at each of the drug concentrations levels. Percentage growth inhibition is calculated as: [(Ti−Tz)/(C−Tz)]×100 for concentrations for which Ti>/=Tz [(Ti−Tz)/Tz]×100 for concentrations for which Ti<Tz.
Three dose response parameters are calculated for each experimental agent.

[2] = system: U251 human CNS tumor xenograft; assay: U251 human CNS tumor xenograft model in nude mice; assay type: in vivo, mouse; settings: 60 mg/kg intraperitoneal
Protocol: The in vivo anti-tumor efficacy of Compound 53 has been studied using U251 human CNS tumor xenograft model in nude mice (FIG. 16). This was a subcutaneous early stage experiment (defined as a median tumor staging size less than 200 mg). Compound 53 or vehicle control was administered by Intraperitoneal injection for various days with different doses. […] Compound 53 was well tolerated at this doses with maximum body weight lose 3.4%.

[3] = system: SC LOX IMVI Melanoma Xenografts; assay: SC LOX IMVI Melanoma Xenografts model in nude mice; assay type: in vivo, mouse; settings: 50 mg/kg intraperitoneal
Protocol: The in vivo anti-tumor efficacy of Compound 53 has been studied using SC LOX IMVI Melanoma Xenografts model in nude mice (FIG. 76). This was a subcutaneous early stage experiment (defined as a median tumor staging size less than 200 mg). Compound 53 or vehicle control was administered by Intraperitoneal injection for various days with different doses.

[4] = system: AN3 human endometrial carcinoma xenograft; assay: Endometrial carcinoma xenograft; assay type: in vivo, mouse
[5] = system: Panc-1 pancreatic carcinoma; assay: Panc-1 model of pancreatic carcinoma; assay type: in vivo, mouse; settings: with or without Abraxane
[6] = system: FLT3 phosphorylation (pFLT3) of MV4-11 tumors; assay: FLT3 phosphorylation in MV4-11 tumor xenografts after oral dosing; assay type: in vivo; settings: Mus musculus, 24 hour after single oral 50 mg/kg
Protocol: (§1) The mice carrying the established MV4-11 tumor xenografts (tumor volume around 150 mm^3) were given an oral dose of 50 mg/kg NTW-3456. At 0, 1, 2, 8, 16, 24 hours after dosing, three were euthanized. The blood samples were collected and plasma was prepared with centrifuge for LCMS assay. And the tumors were harvested, homogenized in lysis buffer, immunoprecipitated with anti-FLT3 antibody FIG. 33.
(§2) The curve (solid dot) is the plot of plasma concentration-time profiles of NTW-3456 after oral administration of 50 mg/kg.

[7] = Plasma concentration after oral dosing in MV4-11 tumor-bearing mice (LCMS); assay type: in vivo; settings: SCID, mouse, 24 hour after single oral 50 mg/kg
Protocol: as §1, §2

GCK(h), sequence (Q12851 whole entry): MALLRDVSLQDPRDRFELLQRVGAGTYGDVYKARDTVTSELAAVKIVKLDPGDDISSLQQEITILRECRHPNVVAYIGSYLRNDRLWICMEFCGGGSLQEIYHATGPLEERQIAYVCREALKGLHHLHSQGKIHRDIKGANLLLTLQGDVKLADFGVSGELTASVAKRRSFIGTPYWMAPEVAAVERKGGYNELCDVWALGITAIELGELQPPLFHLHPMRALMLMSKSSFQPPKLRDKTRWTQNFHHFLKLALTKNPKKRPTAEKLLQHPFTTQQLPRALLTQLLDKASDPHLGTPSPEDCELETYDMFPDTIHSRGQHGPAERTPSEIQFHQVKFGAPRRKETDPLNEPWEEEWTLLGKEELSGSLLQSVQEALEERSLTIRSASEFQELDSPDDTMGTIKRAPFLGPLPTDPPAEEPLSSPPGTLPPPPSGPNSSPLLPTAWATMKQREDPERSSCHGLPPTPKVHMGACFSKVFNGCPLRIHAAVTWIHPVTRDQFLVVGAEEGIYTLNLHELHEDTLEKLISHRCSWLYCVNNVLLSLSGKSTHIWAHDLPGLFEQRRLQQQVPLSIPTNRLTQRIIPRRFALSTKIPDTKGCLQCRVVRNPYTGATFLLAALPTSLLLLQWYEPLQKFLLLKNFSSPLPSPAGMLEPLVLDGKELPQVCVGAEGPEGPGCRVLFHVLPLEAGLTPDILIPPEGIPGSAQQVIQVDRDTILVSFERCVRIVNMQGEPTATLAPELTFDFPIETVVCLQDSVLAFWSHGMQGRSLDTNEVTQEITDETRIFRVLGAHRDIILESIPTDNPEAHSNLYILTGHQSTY

SMILES: Cc1cc2c(F)c(Oc3nc(Nc4cc(C5CC5)[nH]n4)cc(N4CCN(C)CC4)n3)ccc2[nH]1 [Compound 10]
inhibition at 0.1 µM (CaMKIIδ(h)): -6%
inhibition at 0.1 µM (GCK(h)): 79%

inhibition at 0.1 µM (CaMKIIδ(h)): 6%
inhibition at 0.1 µM (GCK(h)): 85%
SMILES: Cc1cc2c(F)c(Oc3nc(Nc4cc(C5CC5)[nH]n4)cc(N4CCNCC4)n3)ccc2[nH]1 [Compound 11, N-(5-cyclopropyl-1H-pyrazol-3-yl)-2-((4-fluoro-2-methyl-1H-indol-5-yl)oxy)-6-(piperazin-1-yl)pyrimidin-4-amine]

SMILES: C/C=C/c1cc(Nc2cc(N3CCN(C)CC3)nc(Oc3ccc4[nH]c(C)cc4c3F)n2)n[nH]1 [Compound 53]
GI50 ([1]; 60 cell, range over the NCI 60 cell lines (Table 6), read-out: growth inhibition (GI50)): 0.01 to 1.89 µM
GI50 ([1]; 786-0, Renal Cancer, 786-0, read-out: GI50): 0.0972 µM
GI50 ([1]; A498, Renal Cancer, A498, read-out: GI50): < 0.01 µM
GI50 ([1]; A549, Non-Small Cell Lung Cancer, A549/ATCC, read-out: GI50): 0.388 µM
GI50 ([1]; ACHN, Renal Cancer, ACHN, read-out: GI50): 0.19 µM
GI50 ([1]; BT-549, Breast Cancer, BT-549, read-out: GI50): 0.268 µM
GI50 ([1]; CAKI-1, Renal Cancer, CAKI-1, read-out: GI50): 0.901 µM
GI50 ([1]; CCRF-CEM, Leukemia, CCRF-CEM, read-out: GI50): < 0.01 µM
GI50 ([1]; COLO 205, Colon Cancer, COLO 205, read-out: GI50): 0.0859 µM
GI50 ([1]; DU-145, Prostate Cancer, DU-145, read-out: GI50): 0.288 µM
GI50 ([1]; HCC 2998, Colon Cancer, HCC-2998, read-out: GI50): 1.42 µM
GI50 ([1]; HCT-15, Colon Cancer, HCT-15, read-out: GI50): 0.397 µM
GI50 ([1]; HCT-116, Colon Cancer, HCT-116, read-out: GI50): 0.0401 µM
GI50 ([1]; HL-60, Leukemia, HL-60(TB), read-out: GI50): 1.43 µM
GI50 ([1]; HOP-62, Non-Small Cell Lung Cancer, HOP-62, read-out: GI50): 0.0914 µM
GI50 ([1]; HOP-92, Non-Small Cell Lung Cancer, HOP-92, read-out: GI50): 0.0224 µM
GI50 ([1]; HT-29, Colon Cancer, HT29, read-out: GI50): 0.0963 µM
GI50 ([1]; Hs-578T, Breast Cancer, HS 578T, read-out: GI50): 0.013 µM
GI50 ([1]; IGROV-1, Ovarian Cancer, IGROV1, read-out: GI50): 0.0472 µM
GI50 ([1]; K562, Leukemia, K-562, read-out: GI50): < 0.01 µM
GI50 ([1]; KM12, Colon Cancer, KM12, read-out: GI50): < 0.01 µM
GI50 ([1]; LOX IMVI, Melanoma, LOX IMVI, read-out: GI50): 0.0343 µM
GI50 ([1]; MCF7, Breast Cancer, MCF7, read-out: GI50): < 0.01 µM
GI50 ([1]; MDA-MB-231, Breast Cancer, MDA-MB-231/ATCC, read-out: GI50): 0.227 µM
GI50 ([1]; MDA-MB-435, Melanoma, MDA-MB-435, read-out: GI50): 0.354 µM
GI50 ([1]; MDA-MB-468, Breast Cancer, MDA-MB-468, read-out: GI50): 0.0392 µM
GI50 ([1]; MOLT-4, Leukemia, MOLT-4, read-out: GI50): 0.0481 µM
GI50 ([1]; Malme-3M, Melanoma, MALME-3M, read-out: GI50): 0.132 µM
GI50 ([1]; Melanoma, M14, read-out: GI50): 0.166 µM
GI50 ([1]; NCI-H23, Non-Small Cell Lung Cancer, NCI-H23, read-out: GI50): 0.153 µM
GI50 ([1]; NCI-H226, Non-Small Cell Lung Cancer, NCI-H226, read-out: GI50): < 0.01 µM
GI50 ([1]; NCI-H322M, Non-Small Cell Lung Cancer, NCI-H322M, read-out: GI50): 0.915 µM
GI50 ([1]; NCI-H460, Non-Small Cell Lung Cancer, NCI-H460, read-out: GI50): 0.0869 µM
GI50 ([1]; NCI-H522, Non-Small Cell Lung Cancer, NCI-H522, read-out: GI50): 0.0722 µM
GI50 ([1]; NCI/ADR-RES, Ovarian Cancer, NCI/ADR-RES, read-out: GI50): 1.54 µM
GI50 ([1]; OVCAR-3, Ovarian Cancer, OVCAR-3, read-out: GI50): 1.07 µM
GI50 ([1]; OVCAR-4, Ovarian Cancer, OVCAR-4, read-out: GI50): 1.55 µM
GI50 ([1]; OVCAR-5, Ovarian Cancer, OVCAR-5, read-out: GI50): 0.171 µM
GI50 ([1]; OVCAR-8, Ovarian Cancer, OVCAR-8, read-out: GI50): 0.187 µM
GI50 ([1]; Prostate Cancer, PC-3, read-out: GI50): 1.27 µM
GI50 ([1]; RPMI-8226, Leukemia, RPMI-8226, read-out: GI50): 1.89 µM
GI50 ([1]; RXF 393, Renal Cancer, RXF 393, read-out: GI50): 0.0184 µM
GI50 ([1]; SF530, CNS Cancer, SF-530, read-out: GI50): 0.0658 µM
GI50 ([1]; SF-268, CNS Cancer, SF-268, read-out: GI50): 0.0877 µM
GI50 ([1]; SF-295, CNS Cancer, SF-295, read-out: GI50): 0.091 µM
GI50 ([1]; SK-MEL-2, Melanoma, SK-MEL-2, read-out: GI50): 1.42 µM
GI50 ([1]; SK-MEL-5, Melanoma, SK-MEL-5, read-out: GI50): 1.27 µM
GI50 ([1]; SK-MEL-28, Melanoma, SK-MEL-28, read-out: GI50): 0.342 µM
GI50 ([1]; SK-OV-3, Ovarian Cancer, SK-OV-3, read-out: GI50): 0.421 µM
GI50 ([1]; SN12C, Renal Cancer, SN12C, read-out: GI50): 0.0487 µM
GI50 ([1]; SNB-19, CNS Cancer, SNB-19, read-out: GI50): 0.205 µM
GI50 ([1]; SNB-75, CNS Cancer, SNB-75, read-out: GI50): 0.0158 µM
GI50 ([1]; SW-620, Colon Cancer, SW-620, read-out: GI50): 0.0441 µM
GI50 ([1]; T47D, Breast Cancer, T-47D, read-out: GI50): 1.03 µM
GI50 ([1]; U-251, CNS Cancer, U251, read-out: GI50): 0.103 µM
GI50 ([1]; UACC-62, Melanoma, UACC-62, read-out: GI50): 0.502 µM
GI50 ([1]; UACC-257, Melanoma, UACC-257, read-out: GI50): 0.388 µM
GI50 ([1]; UO-31, Renal Cancer, UO-31, read-out: GI50): 0.081 µM
maximum body weight lose ([2]; Q2Dx3): 3.4%
treat/control (T/C) ([2]; Q2Dx3, day 30): 40%
maximum body weight lose ([3]; QDx4): 10.3%
treat/control (T/C) ([3]; QDx4, day 13): 21%

concentration at 24 h [7]: 7 nM
SMILES: C/C=C/c1cc(Nc2cc(N3CCN(C)CC3)nc(Oc3cc(F)c4[nH]c(C)cc4c3F)n2)n[nH]1 [NTW-3456]
antiproliferative activity ([1]; cell lines from the NCI 60 panel): Anti-proliferative activity
anti-tumor effect [4]: significant anti-tumor activity
anti-tumor activity [5]: significant anti-tumor activity
inhibition at 50 mg/kg [6]: > 60%
